How the values were obtained:
[1] = [^68Ga]Ga-DOTATATE distribution in blood fractions (plasma vs cells); format: in vivo, New Zealand White rabbits; details: control (N = 2) and athero4mo (N = 3) rabbits
Experimental: Adopting a translational approach, the rabbit studies were performed with the [^68Ga]Ga-labeled tracer, which is already being used in the clinic. [^68Ga]Ga-DOTATATE was purchased from Advanced Accelerator Applications (AAA, Millburn, NJ, USA). To determine its pharmacokinetics, three atherosclerotic rabbits and two healthy controls were injected with approximately 190 MBq of [^68Ga]Ga-DOTATATE. Venous blood was sampled at 1, 5, 10, 15, 20, 30, 60, 120, 180, 240 and 300 min after injection through the ear vein. Samples were weighed and gamma counted. Blood half-life data were fitted using a two-phase decay non-linear regression using GraphPad Prism v8.4.3 (Supplementary Table S1). To investigate the tracer blood distribution, blood samples were centrifuged at 2000 g for 15 min at 4 °C to determine the radioactivity concentration in the plasma and cellular fractions. To analyze [^68Ga]Ga-DOTATATE biodistribution, all rabbits were euthanized after the last imaging time-point using an injection of pentobarbital 100 mg/kg and exsanguination of the portal vein. Rabbits were extensively perfused with 1000 mL of saline. Following, tissues (blood, heart, aorta, liver, kidney, skeletal muscle, small and large intestine, fat, stomach, pancreas and bladder) were harvested, weighed and gamma counted.

[2] = Blood half-life of [^64Cu]Cu-DOTATATE, gamma counting of blood, two-phase decay fit; format: in vivo, mice; details: for %fast: two-phase decay fit of blood radioactivity over 120 min; for %slow / Weighed t1/2 (weighted blood half-life) / t1/2 fast / t1/2 slow: two-phase decay fit
Experimental: Wild-type and atherosclerotic animals were injected with approximately 1.85 MBq of [^64Cu]Cu-DOTATATE and euthanized at either 1, 5, 15, 30, 60 or 120 min after injection (Supplementary Fig. S1A) to evaluate the tracer’s biodistribution. After euthanasia, an insulin syringe was used to collect blood samples from the right ventricle. Blood samples were used for the establishment of pharmacokinetics profile. Mice were then perfused with 20 mL of phosphate-buffered saline (PBS) and tissues of interest (heart, aorta, bone marrow, spleen, liver, stomach, bladder, kidneys, intestines, lungs, adrenal gland, muscles and pancreas) were harvested. Tissues were blotted for gamma counting on a Wizard2 2480 automatic gamma counter (Perkin Elmer, Waltham, MA). Values were corrected for decay and normalized to tissue weight to express radioactivity concentration as percentage injected dose per gram (%ID/g). […] To investigate the tracer’s distribution within different blood compartments, after gamma counting, 100 μL of blood were spun down at 2000 g for 15 min at 4 °C. Plasma (supernatant) and cells (pellet) were gamma counted and expressed as percentage of total activity. The remainder of the blood was separated using Lymphoprep density gradient medium (Nycomed Pharma, Zurich, Switzerland) following manufacturer’s instructions. Percentage of activity in mononuclear and polynuclear cells was calculated.

distribution between plasma and cells [1] | %fast ([2]; Apoe^-/- mice, N = 6) [%] | %slow ([2]; Apoe^-/- mice, N = 6) [%] | Weighed t1/2 (weighted blood half-life) ([2]; Apoe^-/- mice, N = 6) [min] | t1/2 fast ([2]; Apoe^-/- mice, N = 6) [min] | t1/2 slow ([2]; Apoe^-/- mice, N = 6) [min] | %fast ([2]; C57Bl/6 mice, N = 7) [%] | %slow ([2]; C57Bl/6 mice, N = 7) [%] | Weighed t1/2 (weighted blood half-life) ([2]; C57Bl/6 mice, N = 7) [min] | t1/2 fast ([2]; C57Bl/6 mice, N = 7) [min] | t1/2 slow ([2]; C57Bl/6 mice, N = 7) [min] | Compound
detected in plasma, rather than cells |  |  |  |  |  |  |  |  |  |  | C[C@@H](O)[C@H](NC(=O)[C@@H]1CSSC[C@H](NC(=O)[C@@H](Cc2ccccc2)NC(=O)CN2CCN(CC(=O)O)CCN(CC(=O)O)CCN(CC(=O)O)CC2)C(=O)N[C@@H](Cc2ccc(O)cc2)C(=O)N[C@H](Cc2c[nH]c3ccccc23)C(=O)N[C@@H](CCCCN)C(=O)N[C@@H]([C@@H](C)O)C(=O)N1)C(=O)O [[^68Ga]Ga-DOTATATE, metal not drawn]
 | 11.27 | 88.73 | 6.83 | 0.557 | 7.627 | 79.14 | 20.86 | 4.83 | 1.939 | 15.81 | C[C@@H](O)[C@H](NC(=O)[C@@H]1CSSC[C@H](NC(=O)[C@@H](Cc2ccccc2)NC(=O)CN2CCN(CC(=O)O)CCN(CC(=O)O)CCN(CC(=O)O)CC2)C(=O)N[C@@H](Cc2ccc(O)cc2)C(=O)N[C@H](Cc2c[nH]c3ccccc23)C(=O)N[C@@H](CCCCN)C(=O)N[C@@H]([C@@H](C)O)C(=O)N1)C(=O)O [[^64Cu]Cu-DOTATATE, metal not drawn]

— PMC9007951, “Systematically evaluating DOTATATE and FDG as PET immuno-imaging tracers of cardiovascular inflammation” (Scientific Reports, 2022)
